The values that follow are results of earlier work, collected in paper PMC10379611 (International Journal of Molecular Sciences, 2023).

For the data set the following is noted: recommended clinical dose of Paxlovid; cited from earlier work.

In the case of `CC(C)c1nc(CN(C)C(=O)N[C@H](C(=O)N[C@@H](Cc2ccccc2)C[C@H](O)[C@H](Cc2ccccc2)NC(=O)OCc2cncs2)C(C)C)cs1` [Ritonavir], the observed plasma concentrations is 0.5 µM.
